The values below come from US9684238B2, “Fluorene-type compound, photopolymerization initiator comprising said fluorene-type compound, and photosensitive composition containing said photopolymerization initiator” (TOKYO OHKA KOGYO CO., LTD., priority 2012, dated 2017).

Series [1] in a line: Solubility in PGME, PGMEA and ethyl lactate. Format: physicochemical. The following applies: for Solubility Ethyl lactate: in 100 parts by weight of ethyl lactate; for Solubility Ethyl lactate / Solubility PGMEA / Solubility PGME: room temperature; for Solubility PGMEA: in 100 parts by weight of propylene glycol monomethyl ether acetate; for Solubility PGME: in 100 parts by weight of propylene glycol monomethyl ether; for solubility (in words): photopolymerization initiator containing the compound. The protocol:
An evaluation for solubility was performed in accordance with the following evaluation criteria based on the dissolution amount.
A: 10 Parts by weight or more of the photopolymerization initiator is dissolved.
B: An amount in the range of from 5 parts by weight or more to less than 10 parts by weight of the photopolymerization initiator is dissolved.
C: An amount in the range of from 2 parts by weight or more to less than 5 parts by weight of the photopolymerization initiator is dissolved.
D: Less than 2 parts by weight of the photopolymerization initiator is dissolved.

Series [2] in a line: Evaluation 1: 20-μm pattern line width of transparent photosensitive composition. The following applies: for 20-μm pattern line width: transparent composition, initiator 0.4 mmol; for sensitivity to the active energy ray (in words): photopolymerization initiator containing the compound.
Experiment in series [3]: as above
To be noted: initiator 0.4 mmol, exposure energy quantity 30 mJ/cm^2.

A short description of series [4]: Absorption coefficient (absorbance of 0.001% solution in tetrahydrofuran). Format: physicochemical. To be noted: for Λ max (absorption maximum wavelength): 0.001% (wt/vol) in tetrahydrofuran, from 280 nm to 400 nm; for Absorption coefficient at 365 nm / Absorption coefficient at Λ max: 0.001% (wt/vol) solution in tetrahydrofuran. The gist of the method: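 Absorbance of a 0.001% (wt/vol) solution in tetrahydrofuran recorded by spectrophotometer. Absorption maximum wavelength (λmax) taken from the spectrum within 280–400 nm.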

Series [5] can be described thus: Decomposition point by thermal analysis (TG-DTA). It counts as physicochemical. To be noted: 5.0 mg. As for the experimental part: The compounds 1, 2, 4, 6, 8, 9, 11, 12, 13, 15, 16, D-1, D-3, D-4, D-7, D-8, D-9, D-12, D-14, D-15, D-20, C-1, and C-2 were each subjected to measurement with a thermal analysis apparatus (TG-DTA) (manufactured by Rigaku Corporation, trade name: “Thermo Plus EVO TG 8120”) by using 5.0 mg thereof.

Series [6] is described as follows: Evaluation 3: 20-μm pattern line width of black photosensitive composition. The following applies: black composition (carbon black, cardo resin), initiator 0.4 mmol. Summed up:
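Composition spin-coated on glass to 1.0 μm dry thickness, dried 90 °C for 10 min, exposed at 10–80 mJ/cm^2 via high-pressure mercury lamp through 20 μm negative mask, developed in 0.1 wt % TMAH, rinsed. Line width of remaining cured film measured; larger width means higher sensitivity.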

Series [7] is described as follows: Transmittance of transparent cured film. To be noted: for Average transmittance (700 nm to 400 nm) Transparent cured film / Transmittance (400 nm) Transparent cured film: cured at exposure energy quantity 80 mJ/cm^2. It counts as physicochemical. Summed up:
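Films cured at 80 mJ/cm^2 exposure, otherwise prepared as in the earlier film evaluation. Spectrophotometer read in quartz cell, 1 cm path, giving transmittance (%) at 400 nm and average transmittance (%) over 400–700 nm.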

Series [8] is described as follows: Average transmittance of composition. It counts as physicochemical. The following applies: photosensitive composition, quartz cell, optical path length 1 cm. The protocol:
The average transmittance (%) of each of the photosensitive resin compositions obtained in Examples 1 to 9, Examples 2-1 to 2-10, and Comparative Examples 1 and 2 in the range of from 400 nm to 700 nm was measured with a spectrophotometer (manufactured by Hitachi High-Technologies Corporation, trade name: “U-3900H”, quartz cell, optical path length; 1 cm).

Setting [9] is: exposure energy quantity 5 mJ/cm^2.
Setting [10] is: exposure energy quantity 10 mJ/cm^2.
The mark [11] stands for this setting: exposure energy quantity 20 mJ/cm^2.
Where [12] appears, read: exposure energy quantity 40 mJ/cm^2.
Setting [13] is: exposure energy quantity 80 mJ/cm^2.

The structures appear in SMILES notation.

For `CCCC1(CCC)c2cc(C(=O)c3ccc([N+](=O)[O-])cc3)ccc2-c2ccc(C(=NOC(C)=O)C(C)C)cc21` (mixture of isomers) [Compound D-8], the “Solubility Ethyl lactate” value in series [1] is “A (10 Parts by weight or more of the photopolymerization initiator is dissolved.)”. The “Solubility PGMEA” value in series [1] was “A (10 Parts by weight or more of the photopolymerization initiator is dissolved.)”. In addition, the “Solubility PGME” value in series [1] was “A (10 Parts by weight or more of the photopolymerization initiator is dissolved.)”. The “solubility (in words)” value in series [1] is given as “additionally excellent solubility”. Besides, the “20-μm pattern line width” value in series [2] (setting [9]) is listed as 19.1; in series [2] (setting [10]) it was 19.7; in series [2] (setting [11]), 20.0; in series [2] (setting [12]), 21.9; in series [3] it was 21.3; in series [6] (10 mJ/cm^2), 18.7. The “20-μm pattern line width” value in series [6] (20 mJ/cm^2) worked out at 18.7; in series [6] (40 mJ/cm^2), 20.0; in series [6] (60 mJ/cm^2), 20.7; in series [6] (80 mJ/cm^2), 21.1. Moreover, in series [4], the “Λ max (absorption maximum wavelength)” value was 335.5 nm. In addition, the “Absorption coefficient at 365 nm” value in series [4] worked out at 10.9 mL/mg/cm. For the same molecule, the “Absorption coefficient at Λ max” value in series [4] amounted to 52.1 mL/mg/cm. In series [5], this molecule yielded a Decomposition point of 182.6 °C. Also, in series [7], the “Average transmittance (700 nm to 400 nm) Transparent cured film” value was 100.0%. For the same molecule, the “Transmittance (400 nm) Transparent cured film” value in series [7] was 98.0%. Further, in series [7] (photopolymerization initiator containing the compound), the “transparency of photosensitive composition and formed product (in words)” value is reported as “additionally excellent transparency”. For the same molecule, the “Average transmittance (700 nm to 400 nm) Solution” value in series [8] is on record as 87.0%.
In the case of `CCCC1(CCC)c2cc(C(C)=NOC(C)=O)ccc2-c2ccc([N+](=O)[O-])cc21` [Compound D-3], the “Solubility Ethyl lactate” value in series [1] was “D (Less than 2 parts by weight of the photopolymerization initiator is dissolved.)”. Besides, the “Solubility PGMEA” value in series [1] is reported as “C (An amount in the range of from 2 parts by weight or more to less than 5 parts by weight of the photopolymerization initiator is dissolved.)”. Also, the “Solubility PGME” value in series [1] was “D (Less than 2 parts by weight of the photopolymerization initiator is dissolved.)”. Further, the “sensitivity to the active energy ray (in words)” value in series [2] is “additionally high sensitivity to the active energy ray”. Further, the “20-μm pattern line width” value in series [2] (setting [9]) is given as 19.6; in series [2] (setting [10]), 20.9; in series [2] (setting [11]), 21.4; in series [2] (setting [12]) it was 22.5; in series [2] (setting [13]) it was 23.8; in series [6] (10 mJ/cm^2) it was 19.6. Besides, the “20-μm pattern line width” value in series [6] (20 mJ/cm^2) is 20.6; in series [6] (40 mJ/cm^2), 21.6; in series [6] (60 mJ/cm^2), 22.1; in series [6] (80 mJ/cm^2) it was 22.6. Moreover, in series [4], the “Λ max (absorption maximum wavelength)” value amounted to 345.5 nm. In addition, the “Absorption coefficient at 365 nm” value in series [4] was found to be 46.3 mL/mg/cm. In addition, the “Absorption coefficient at Λ max” value in series [4] was determined as 67.8 mL/mg/cm. This molecule also registered a Decomposition point in series [5] of 272.2 °C. Moreover, the “Average transmittance (700 nm to 400 nm) Transparent cured film” value in series [7] worked out at 99.8%. Moreover, the “Transmittance (400 nm) Transparent cured film” value in series [7] worked out at 95.2%. For the same molecule, the “Average transmittance (700 nm to 400 nm) Solution” value in series [8] amounted to 88.9%.
`CCCC1(CCC)c2cc(C(=O)c3ccc([N+](=O)[O-])cc3)ccc2-c2ccc(C(C)=NOC(C)=O)cc21` [Compound D-7]: in series [1], the “Solubility Ethyl lactate” value was “D (Less than 2 parts by weight of the photopolymerization initiator is dissolved.)”, the “Solubility PGMEA” value is reported as “D (Less than 2 parts by weight of the photopolymerization initiator is dissolved.)” and the “Solubility PGME” value is “D (Less than 2 parts by weight of the photopolymerization initiator is dissolved.)”. The “20-μm pattern line width” value in series [2] (setting [9]) was found to be 19.3. Further, the “20-μm pattern line width” value in series [2] (setting [10]) worked out at 20.2. Moreover, the “20-μm pattern line width” value in series [2] (setting [11]) is 20.8. Besides, the “20-μm pattern line width” value in series [2] (setting [12]) is listed as 22.6. In series [3], the “20-μm pattern line width” value was found to be 21.4. For the same molecule, in series [4], the “Λ max (absorption maximum wavelength)” value was found to be 341.5 nm, the “Absorption coefficient at 365 nm” value was 21.9 mL/mg/cm and the “Absorption coefficient at Λ max” value came out at 62.9 mL/mg/cm. Besides, the Decomposition point in series [5] is 250.3 °C. Further, in series [7], the “Average transmittance (700 nm to 400 nm) Transparent cured film” value is 99.3% and the “Transmittance (400 nm) Transparent cured film” value is on record as 96.1%. For the same molecule, the “Average transmittance (700 nm to 400 nm) Solution” value in series [8] came to 86.0%.
On to `CCCC1(CCC)c2cc(C(=O)/C(C)=N/OC(C)=O)ccc2-c2ccc(C(=O)c3ccc([N+](=O)[O-])cc3)cc21` [Compound D-9], for which the “Solubility Ethyl lactate” value in series [1] is on record as “C (An amount in the range of from 2 parts by weight or more to less than 5 parts by weight of the photopolymerization initiator is dissolved.)”. Besides, the “Solubility PGMEA” value in series [1] is “C (An amount in the range of from 2 parts by weight or more to less than 5 parts by weight of the photopolymerization initiator is dissolved.)”. The “Solubility PGME” value in series [1] was “D (Less than 2 parts by weight of the photopolymerization initiator is dissolved.)”. In addition, the “20-μm pattern line width” value in series [2] (setting [9]) is given as 19.3; in series [2] (setting [10]), 19.5; in series [2] (setting [11]), 20.0; in series [2] (setting [12]), 20.7; in series [2] (setting [13]), 21.7; in series [6] (10 mJ/cm^2) it was 18.8. Also, the “20-μm pattern line width” value in series [6] (20 mJ/cm^2) came to 19.1; in series [6] (40 mJ/cm^2) it was 20.1; in series [6] (60 mJ/cm^2) it was 20.9; in series [6] (80 mJ/cm^2) it was 21.2. The “Λ max (absorption maximum wavelength)” value in series [4] was found to be 343.0 nm. For the same molecule, the “Absorption coefficient at 365 nm” value in series [4] came to 29.1 mL/mg/cm. Also, the “Absorption coefficient at Λ max” value in series [4] was determined as 63.7 mL/mg/cm. The molecule also had a Decomposition point in series [5] of 228.9 °C. In addition, in series [7], the “Average transmittance (700 nm to 400 nm) Transparent cured film” value is 99.8%. Besides, the “Transmittance (400 nm) Transparent cured film” value in series [7] is given as 96.4%. Also, the “Average transmittance (700 nm to 400 nm) Solution” value in series [8] was 70.9%.
Turning to `CCCC1(CCC)c2cc(C(CCCCl)=NOC(C)=O)ccc2-c2ccc([N+](=O)[O-])cc21` [Compound D-12], the “Solubility Ethyl lactate” value in series [1] is listed as “B (An amount in the range of from 5 parts by weight or more to less than 10 parts by weight of the photopolymerization initiator is dissolved.)”. Also, in series [1], the “Solubility PGMEA” value was “A (10 Parts by weight or more of the photopolymerization initiator is dissolved.)”. For the same molecule, the “Solubility PGME” value in series [1] is “A (10 Parts by weight or more of the photopolymerization initiator is dissolved.)”. Further, in series [1], the “solubility (in words)” value was “additionally excellent solubility”. Further, the “sensitivity to the active energy ray (in words)” value in series [2] is “additionally high sensitivity to the active energy ray”. Also, the “20-μm pattern line width” value in series [2] (setting [9]) is given as 19.8; in series [2] (setting [10]), 20.6; in series [2] (setting [11]), 21.4; in series [2] (setting [12]) it was 22.3; in series [2] (setting [13]), 23.3; in series [6] (10 mJ/cm^2) it was 19.1. In addition, the “20-μm pattern line width” value in series [6] (20 mJ/cm^2) came out at 20.5; in series [6] (40 mJ/cm^2) it was 21.6; in series [6] (60 mJ/cm^2), 22.5; in series [6] (80 mJ/cm^2) it was 22.7. In series [4], the “Λ max (absorption maximum wavelength)” value came out at 345.5 nm. For the same molecule, the “Absorption coefficient at 365 nm” value in series [4] is 39.0 mL/mg/cm. Also, the “Absorption coefficient at Λ max” value in series [4] turned out to be 58.4 mL/mg/cm. The same molecule came in with a Decomposition point in series [5] of 174.7 °C. In addition, in series [7], the “Average transmittance (700 nm to 400 nm) Transparent cured film” value came to 99.7%. In series [7], the “Transmittance (400 nm) Transparent cured film” value came to 93.6%. Moreover, in series [8], the “Average transmittance (700 nm to 400 nm) Solution” value was found to be 79.9%.
